Where a name gives a salt, the structure may show the parent alone.
System: Type IV PDE
Assay: PDE IV inhibition: hydrolysis of [3H]-cyclic AMP by isolated Type IV PDE
Format: biochemical, bovine
Conditions: adenines, Table 4; cyclic AMP 0.2 μM; read-out: calc PDE IV IC50
Protocol: The Type IV PDE is isolated from bovine tracheal smooth muscle using a procedure similar to that previously described by Silver, P. J., Hamel, L. T., Perrone, M. H. Bentley, R. G. Bushover, C. R., Evans, D. B.: Eur. J. Pharmacol. 150:85,1988.(1). Briefly, smooth muscle from bovine trachea is minced and homogenized using a polytron in 10 volumes of an extraction buffer containinhg 10 mM Tris-acetate (pH 7.5), 2 mM magnesium chloride, 1 mM dithiothreitol and 2,000 units/ml of aprotinin. This and all subsequent procedures are performed at 0-4° C. The homogenate is sonicated and then centrifiged at 48,000×g for 30 minutes. The resulting supernatant is applied to a DEAE Trisacryl M column previously equilibrated with sodium acetate and dithiothreitol. After applications of the sample, the column is washed with sodium acetate/dithiothreitol, after which the different forms of PDE are eluted from the column using a linear Tris-HCl/NaCl gradient. Fractions containing Type IV PDE are collected, dialyzed and concentrated to 14% of the original volume. The concentrated fractions are diluted to 50% with ethylene glycol and stored at -20° C.
Enzyme activity is assessed by measuring the hydrolysis of [^3H]-cyclic AMP, as described by Thompson, W. J., Teraski, W. L., Epstein, P. N., Strada, S. J.: Adv. Cyclic Nucleotide Res. 10:69, 1979. The cyclic AMP concentration used in this assay is 0.2 μM, which approximates the Km value. Protein concentration is adjusted to ensure that no more than 15% of the available substrate is hydrolyzed during the incubation period.
All test compounds are dissolved in dimethyl sulfoxide (final concentration of 2.5%). This concentration of dimethyl sulfoxide inhibits enzyme activity by approximately 10%.

Row | IC50 [µM] | Compound
1 | 37.8 | CCNc1ncn(Cc2ccc(Cl)cc2)c2ncnc1-2.Cl [3-(4-chlorobenzyl)-6-ethylamino-3H-purine hydrochloride]
2 | 4.52 | CCNc1ncn(CC)c2nc(Cc3ccc(OC)c(OC4CCCC4)c3)nc1-2 [8-(3-Cyclopentyloxy-4-methoxybenzyl)-3-ethyl-6-ethylamino-3H-purine Hydrochloride]
3 | 4.11 | CCNc1ncn(CC2CC2)c2nc(C3CC3)nc1-2 [8-cyclopropyl-3-cyclopropylmethyl-6-ethylamino-3H-purine hydrochloride]
4 | 15.7 | CCCNc1ncn(CC)c2nc(C3CC3)nc1-2 [8-cyclopropyl-3-ethyl-6-propylamino-3H-purine hydrochloride]
5 | 7.9 | CCCn1cnc(NC2CC2)c2nc(C3CC3)nc1-2 [8-cyclopropyl-6-cyclopropylamino-3-propyl-3H-purine hydrochloride]
6 | 6.31 | CCCn1cnc(NCC)c2nc(C3CC3)nc1-2 [8-cyclopropyl-6-ethylamino-3-propyl-3H-purine hydrochloride]

Same assay, conditions: adenines, Table 7; read-out: calc PDE IV IC50

Row | Compound | IC50 [µM]
7 | CCNc1ncn(Cc2ccc(OC)cc2)c2nc(C(C)C)nc1-2 [6-ethylamino-8-isopropyl-3-(4-methoxybenzyl)-3H-purine] | 1.2
8 | CCNc1ncn(Cc2ccc(OC)c(OCCCCO)c2)c2nc(C(C)C)nc1-2 [6-ethylamino-8-isopropyl-3-[(4-methoxy-3-(4-hydroxybutoxy))benzyl]-3H-purine] | 1.75

Same assay, conditions: dithioxanthines, Table 5; read-out: IC50 PDE IV

Row | IC50 [µM] | Compound
9 | 6.31 | CC(C)CCn1c(=S)[nH]c(=S)c2[nH]c(C3CC3)nc21 [8-cyclopropyl-3,7-dihydro-3-(3-methylbutyl)-2,6-dithio-1H-purine-2,6-dione]
10 | 6.18 | CCn1c(=S)[nH]c(=S)c2[nH]c(C3CC3)nc21 [8-cyclopropyl-3,7-dihydro-3-ethyl-2,6-dithio-1H-purine-2,6-dione]
11 | 64.5 | CCCn1c(=S)[nH]c(=S)c2[nH]c(C3CC3)nc21 [8-cyclopropyl-3,7-dihydro-3-propyl-2,6-dithio-1H-purine-2,6-dione]
12 | 2.27 | S=c1[nH]c(=S)n(CC2CC2)c2nc(C3CC3)[nH]c12 [8-cyclopropyl-3-cyclopropylmethyl-3,7-dihydro-2,6-dithio-1H-purine-2,6-dione]

Same assay, conditions: read-out: PDE IV I50

Row | IC50 [µM] | Compound
13 | 1.13 | CCNc1ncn(Cc2ccc(Cl)cc2)c2nc(C(C)C)nc1-2 [3-(4-chlorobenzyl)-6-ethylamino-8-isopropyl-3H-purine]
14 | 0.42 | CCn1c(=S)c2[nH]c(C3CC3)nc2n(CC)c1=S [8-cyclopropyl-3,7-dihydro-1,3-diethyl-2,6-dithio-1H-purin-2,6-dione]
15 | 0.41 | CCCn1c(=S)nc(NCc2ccncc2)c2[nH]c(C3CC3)nc21 [8-cyclopropyl-3,7-dihydro-3-propyl-6-(4-pyridyl-methylamino)-2-thio-2H-purin-2-one]
16 | 4.48 | CCCn1c(=S)nc(NCCO)c2[nH]c(C3CC3)nc21 [8-cyclopropyl-3,7-dihydro-6-(2-hydroxyethylamino)-3-propyl-2-thio-2H-purin-2-one]

Same assay, conditions: thioisoguanines, Table 2; cyclic AMP 0.2 μM; read-out: Calc IC50 PDE IV

Row | IC50 [µM] | Compound
17 | 53.8 | CCCn1c(=S)nc(NCCO)c2[nH]c(C3CC3)nc21 [8-cyclopropyl-3,7-dihydro-6-(2-hydroxyethylamino)-3-propyl-2-thio-2H-purin-2-one]
18 | 13.7 | CCNc1nc(=S)n(CC)c2nc(C3CC3)[nH]c12 [8-cyclopropyl-3-ethyl-6-ethylamino-3,7-dihydro-2-thio-2H-purin-2-one]
19 | 8.48 | CCCNc1nc(=S)n(CC)c2nc(C3CC3)[nH]c12 [8-cyclopropyl-3-ethyl-6-propylamino-2-thio-2H-purin-2-one]

System: not given
Assay: not given
Conditions: not given

Row | melting point [°C] | Compound
20 | 172 to 175 | COc1ccc(Cn2cnc(N)c3nc(C(C)(C)OCc4ccc(F)cc4)nc2-3)cc1OC (as salt: hydrochloride) [6-Amino-3-(3,4-dimethoxybenzyl)-8-(1-(4-fluorobenzyloxy-1-methyl-ethyl)-3H-purine Hydrochloride]
21 | 190 to 195 | CCCCCCn1cnc(NCC)c2ncnc1-2 (as salt: hydrochloride) [6-Ethylamino-3-hexyl-3H-purine]
22 | 251 to 254 | CCNc1ncn(Cc2ccc(Cl)cc2)c2ncnc1-2.Cl [3-(4-chlorobenzyl)-6-ethylamino-3H-purine hydrochloride]
23 | 215 to 217 | CCNc1ncn(Cc2ccc(Cl)cc2)c2nc(C(C)C)nc1-2 [3-(4-chlorobenzyl)-6-ethylamino-8-isopropyl-3H-purine]

Reference: patent US6413975B1, “Purine derivatives having phosphodiesterase iv inhibition activity” (Euro-Celtique, S.A., priority 1999, dated 2002)
